Columns and labels:
[1] = tested on: Spring Argentine canola (Brassica napus, BRSNS); assay: Example 3 field trials (Canada), postemergence crop safety, visual phytotoxicity
[2] = tested on: spring oilseed rape (Brassica napus, BRSNS); assay: Example 4 field trials (Europe), postemergence crop safety, visual phytotoxicity
[3] = tested on: Nexera™ canola (Brassica napus, BRSNN-NEX); assay: Example 5 greenhouse trials, postemergence visual injury; conditions: for % Visual Injury Obs / Visual Injury Obs: BRSNN-NEX

## COC(=O)c1nc(-c2ccc(Cl)c(OC)c2F)cc(N)c1Cl [Halauxifen-methyl, methyl 4-amino-3-chloro-6-(4-chloro-2-fluoro-3-methoxyphenyl)-2-pyridineccarboxylate]
[1]; Table 18, 40DAAA, halauxifen-methyl 5, clopyralid-olamine 150 g ae/ha, alone or mixed
  Mean % Visual Injury: 7%
[1]; Table 18, 81DAAA, halauxifen-methyl 5, clopyralid-olamine 150 g ae/ha, alone or mixed
  Mean % Visual Injury: 6%
[1]; Table 19, 8DAAA, halauxifen-methyl 5, clopyralid-olamine 150 g ae/ha alone, or both mixed with isoxadifen-ethyl 20 g ae/ha
  Mean % Visual Injury: 10%
[1]; Table 19, 14DAAA, halauxifen-methyl 5, clopyralid-olamine 150 g ae/ha alone, or both mixed with isoxadifen-ethyl 20 g ae/ha
  Mean % Visual Injury: 24%
[1]; Table 19, 40DAAA, halauxifen-methyl 5, clopyralid-olamine 150 g ae/ha alone, or both mixed with isoxadifen-ethyl 20 g ae/ha
  Mean % Visual Injury: 7%
[1]; Table 19, 81DAAA, halauxifen-methyl 5, clopyralid-olamine 150 g ae/ha alone, or both mixed with isoxadifen-ethyl 20 g ae/ha
  Mean % Visual Injury: 6%
[1]; Table 21, 8DAAA, halauxifen-methyl 5, quinclorac 101 g ae/ha, alone or mixed
  Mean % Visual Injury: 10%
[1]; Table 21, 14DAAA, halauxifen-methyl 5, quinclorac 101 g ae/ha, alone or mixed
  Mean % Visual Injury: 24%
[1]; Table 21, 40DAAA, halauxifen-methyl 5, quinclorac 101 g ae/ha, alone or mixed
  Mean % Visual Injury: 7%
[1]; Table 21, 81DAAA, halauxifen-methyl 5, quinclorac 101 g ae/ha, alone or mixed
  Mean % Visual Injury: 6%
[1]; Table 22, 8DAAA, halauxifen-methyl 5, clopyralid-olamine 150, quinclorac 101 g ae/ha, alone or mixed
  Mean % Visual Injury: 10%
[1]; Table 22, 14DAAA, halauxifen-methyl 5, clopyralid-olamine 150, quinclorac 101 g ae/ha, alone or mixed
  Mean % Visual Injury: 24%
[1]; Table 22, 40DAAA, halauxifen-methyl 5, clopyralid-olamine 150, quinclorac 101 g ae/ha, alone or mixed
  Mean % Visual Injury: 7%
[1]; Table 22, 81DAAA, halauxifen-methyl 5, clopyralid-olamine 150, quinclorac 101 g ae/ha, alone or mixed
  Mean % Visual Injury: 6%
[1]; Table 23, 7DAAA, halauxifen-methyl 5, clopyralid-olamine 150 g ae/ha, alone or mixed
  Mean % Visual Injury: 2.5%
[1]; Table 23, 17DAAA, halauxifen-methyl 5, clopyralid-olamine 150 g ae/ha, alone or mixed
  Mean % Visual Injury: 3.0%
[1]; Table 23, 49DAAA, halauxifen-methyl 5, clopyralid-olamine 150 g ae/ha, alone or mixed
  Mean % Visual Injury: 2.5%
[1]; Table 24, 7DAAA, halauxifen-methyl 5, clopyralid-olamine 150 g ae/ha alone, or both mixed with isoxadifen-ethyl 20 g ae/ha
  Mean % Visual Injury: 2.5%
[1]; Table 24, 17DAAA, halauxifen-methyl 5, clopyralid-olamine 150 g ae/ha alone, or both mixed with isoxadifen-ethyl 20 g ae/ha
  Mean % Visual Injury: 3.0%
[1]; Trial 1, 16DAA1, halauxifen-methyl 2.5, clopyralid-olamine 150 g ae/ha, alone or mixed
  Mean % Visual Growth Inhibition: 1.5%
[1]; Trial 1, 30DAA1, halauxifen-methyl 2.5, clopyralid-olamine 150 g ae/ha, alone or mixed
  Mean % Visual Growth Inhibition: 3.3%
[1]; Trial 1, 58DAA1, halauxifen-methyl 2.5, clopyralid-olamine 150 g ae/ha, alone or mixed
  Mean % Visual Growth Inhibition: 1.0%
[1]; Trial 2, 32DAA1, halauxifen-methyl 0.62, clopyralid-olamine 150 g ae/ha, alone or mixed
  Mean % Visual Growth Inhibition: 1.0%
[1]; Trial 2, 32DAA1, halauxifen-methyl 1.25, clopyralid-olamine 150 g ae/ha, alone or mixed
  Mean % Visual Growth Inhibition: 3.8%
[1]; Trial 2, 32DAA1, halauxifen-methyl 2.5, clopyralid-olamine 150 g ae/ha, alone or mixed
  Mean % Visual Growth Inhibition: 8.0%
[1]; Trial 2, 49DAA1, halauxifen-methyl 0.62, clopyralid-olamine 150 g ae/ha, alone or mixed
  Mean % Visual Growth Inhibition: 0.3%
[1]; Trial 2, 49DAA1, halauxifen-methyl 1.25, clopyralid-olamine 150 g ae/ha, alone or mixed
  Mean % Visual Growth Inhibition: 2.3%
[1]; Trial 2, 49DAA1, halauxifen-methyl 2.5, clopyralid-olamine 150 g ae/ha, alone or mixed
  Mean % Visual Growth Inhibition: 2.5%
[1]; Trial 3, 8DAA1, halauxifen-methyl 5, clopyralid-olamine 150 g ae/ha, alone or mixed, line r23
  Mean % Visual Growth Inhibition: 2.5%
[1]; Trial 3, 8DAA1, halauxifen-methyl 5, clopyralid-olamine 150 g ae/ha, alone or mixed, line r25
  Mean % Visual Growth Inhibition: 1.5%
[1]; Trial 3, 8DAA1, halauxifen-methyl 10, clopyralid-olamine 150 g ae/ha, alone or mixed, line r22
  Mean % Visual Growth Inhibition: 3.3%
[1]; Trial 3, 8DAA1, halauxifen-methyl 10, clopyralid-olamine 150 g ae/ha, alone or mixed, line r24
  Mean % Visual Growth Inhibition: 2.3%
[1]; Trial 3, 17DAA1, halauxifen-methyl 5, clopyralid-olamine 150 g ae/ha, alone or mixed, line r27
  Mean % Visual Growth Inhibition: 1.3%
[1]; Trial 3, 17DAA1, halauxifen-methyl 5, clopyralid-olamine 150 g ae/ha, alone or mixed, line r29
  Mean % Visual Growth Inhibition: 1.5%
[1]; Trial 3, 17DAA1, halauxifen-methyl 10, clopyralid-olamine 150 g ae/ha, alone or mixed, line r26
  Mean % Visual Growth Inhibition: 29.5%
[1]; Trial 3, 17DAA1, halauxifen-methyl 10, clopyralid-olamine 150 g ae/ha, alone or mixed, line r28
  Mean % Visual Growth Inhibition: 2.8%
[1]; Trial 3, 35DAA1, halauxifen-methyl 10, clopyralid-olamine 150 g ae/ha, alone or mixed
  Mean % Visual Growth Inhibition: 0.8%
[1]; Trial 3, 48DAA1, halauxifen-methyl 5, clopyralid-olamine 150 g ae/ha, alone or mixed, line r31
  Mean % Visual Growth Inhibition: 1.8%
[1]; Trial 3, 48DAA1, halauxifen-methyl 5, clopyralid-olamine 150 g ae/ha, alone or mixed, line r32
  Mean % Visual Growth Inhibition: 1.5%
[1]; Trial 4, 13DAA1, halauxifen-methyl 10, clopyralid-olamine 150 g ae/ha, alone or mixed, line r33
  Mean % Visual Growth Inhibition: 57.5%
[1]; Trial 4, 13DAA1, halauxifen-methyl 10, clopyralid-olamine 150 g ae/ha, alone or mixed, line r34
  Mean % Visual Growth Inhibition: 31.3%
[1]; Trial 5, 7DAA1, halauxifen-methyl 0.62, clopyralid-olamine 150 g ae/ha, alone or mixed
  Mean % Visual Growth Inhibition: 1.0%
[1]; Trial 5, 7DAA1, halauxifen-methyl 1.25, clopyralid-olamine 150 g ae/ha, alone or mixed
  Mean % Visual Growth Inhibition: 1.5%
[1]; Trial 5, 7DAA1, halauxifen-methyl 2.5, clopyralid-olamine 150 g ae/ha, alone or mixed
  Mean % Visual Growth Inhibition: 1.5%
[1]; Trial 5, 7DAA1, halauxifen-methyl 5, clopyralid-olamine 150 g ae/ha, alone or mixed
  Mean % Visual Growth Inhibition: 2.0%
[1]; Trial 6, 33DAA1, halauxifen-methyl 5, clopyralid-olamine 150 g ae/ha, alone or mixed
  Mean % Visual Growth Inhibition: 4.5%
[1]; Trial 7, 8DAA1, halauxifen-methyl 5, clopyralid-olamine 150 g ae/ha, alone or mixed
  Mean % Visual Growth Inhibition: 8.0%
[1]; Trial 7, 15DAA1, halauxifen-methyl 0.62, clopyralid-olamine 150 g ae/ha, alone or mixed
  Mean % Visual Growth Inhibition: 2.5%
[1]; Trial 7, 15DAA1, halauxifen-methyl 5, clopyralid-olamine 150 g ae/ha, alone or mixed
  Mean % Visual Growth Inhibition: 15.5%
[1]; Trial 8, 7DAA1, halauxifen-methyl 5, clopyralid-olamine 150 g ae/ha, alone or mixed
  Mean % Visual Growth Inhibition: 7.5%
[1]; Trial 8, 7DAA1, halauxifen-methyl 10, clopyralid-olamine 150 g ae/ha, alone or mixed, line r44
  Mean % Visual Growth Inhibition: 9.0%
[1]; Trial 8, 7DAA1, halauxifen-methyl 10, clopyralid-olamine 150 g ae/ha, alone or mixed, line r45
  Mean % Visual Growth Inhibition: 3.5%
[1]; Trial 8, 7DAA1, halauxifen-methyl 10, clopyralid-olamine 150 g ae/ha, alone or mixed, line r46
  Mean % Visual Growth Inhibition: 2.0%
[1]; Trial 8, 7DAA1, halauxifen-methyl 10, clopyralid-olamine 150 g ae/ha, alone or mixed, line r47
  Mean % Visual Growth Inhibition: 1.5%
[1]; Trial 8, 15DAA1, halauxifen-methyl 5, clopyralid-olamine 150 g ae/ha, alone or mixed
  Mean % Visual Growth Inhibition: 20.0%
[1]; Trial 8, 15DAA1, halauxifen-methyl 10, clopyralid-olamine 150 g ae/ha, alone or mixed, line r49
  Mean % Visual Growth Inhibition: 6.0%
[1]; Trial 8, 15DAA1, halauxifen-methyl 10, clopyralid-olamine 150 g ae/ha, alone or mixed, line r50
  Mean % Visual Growth Inhibition: 2.0%
[1]; Trial 9, 23DAA1, halauxifen-methyl 2.5, clopyralid-olamine 150 g ae/ha, alone or mixed
  Mean % Visual Growth Inhibition: 35.0%
[1]; Trial 9, 23DAA1, halauxifen-methyl 5, clopyralid-olamine 150 g ae/ha, alone or mixed
  Mean % Visual Growth Inhibition: 50.0%
[1]; Trial 9, 33DAA1, halauxifen-methyl 5, clopyralid-olamine 150 g ae/ha, alone or mixed
  Mean % Visual Growth Inhibition: 25.0%
[1]; Trial 9, 59DAA1, halauxifen-methyl 5, clopyralid-olamine 150 g ae/ha, alone or mixed
  Mean % Visual Growth Inhibition: 6.3%
[1]; Trial 10, 17DAA1, halauxifen-methyl 5, clopyralid-olamine 100 g ae/ha, alone or mixed
  Mean % Visual Growth Inhibition: 46.7%
[1]; Trial 10, 17DAA1, halauxifen-methyl 5, clopyralid-olamine 150 g ae/ha, alone or mixed
  Mean % Visual Growth Inhibition: 46.7%
[1]; Trial 10, 17DAA1, halauxifen-methyl 5, clopyralid-olamine 200 g ae/ha, alone or mixed
  Mean % Visual Growth Inhibition: 46.7%
[1]; Trial 10, 27DAA1, halauxifen-methyl 5, clopyralid-olamine 150 g ae/ha, alone or mixed
  Mean % Visual Growth Inhibition: 16.7%
[1]; Trial 10, 27DAA1, halauxifen-methyl 5, clopyralid-olamine 200 g ae/ha, alone or mixed
  Mean % Visual Growth Inhibition: 16.7%
[1]; Trial 11, 7DAA1, halauxifen-methyl 5, clopyralid-olamine 150 g ae/ha, alone or mixed
  Mean % Visual Growth Inhibition: 1.3%
[1]; Trial 11, 15DAA1, halauxifen-methyl 0.62, clopyralid-olamine 150 g ae/ha, alone or mixed
  Mean % Visual Growth Inhibition: 2.0%
[1]; Trial 11, 15DAA1, halauxifen-methyl 1.25, clopyralid-olamine 150 g ae/ha, alone or mixed
  Mean % Visual Growth Inhibition: 6.5%
[1]; Trial 12, 15DAA1, halauxifen-methyl 10, clopyralid-olamine 150 g ae/ha, alone or mixed
  Mean % Visual Growth Inhibition: 25.0%
[1]; Trial 12, 27DAA1, halauxifen-methyl 5, clopyralid-olamine 150 g ae/ha, alone or mixed
  Mean % Visual Growth Inhibition: 5.8%
[2]; Trial 1, 14DAA1, 5 g ae/ha alone
  Mean % Visual Growth Inhibition: 3%
[2]; Trial 1, 14DAA1, 6 g ae/ha alone
  Mean % Visual Growth Inhibition: 3%
[2]; Trial 1, 14DAA1, 10 g ae/ha alone
  Mean % Visual Growth Inhibition: 3%
[2]; Trial 1, 14DAA1, 12 g ae/ha alone
  Mean % Visual Growth Inhibition: 3%
[2]; Trial 2, 17DAA1, 5 g ae/ha alone
  Mean % Visual Growth Inhibition: 10%
[2]; Trial 2, 24DAA1, 5 g ae/ha alone
  Mean % Visual Growth Inhibition: 10%
[3]; 2.5 g ai/ha alone, 20-22 d
  % Visual Injury Obs: 15%
[3]; 5 g ai/ha alone, 20-22 d
  % Visual Injury Obs: 20%
[3]; 10 g ai/ha alone, 20-22 d
  % Visual Injury Obs: 23%
[3]; halauxifen-methyl 2.5 g ai/ha
  % Visual Injury Obs: 15%
  Visual Injury Obs: 15%
[3]; halauxifen-methyl 5 g ai/ha
  % Visual Injury Obs: 20%
  Visual Injury Obs: 20%
[3]; halauxifen-methyl 10 g ai/ha
  % Visual Injury Obs: 23%
  Visual Injury Obs: 23%
[3]; halauxifen-methyl alone 2.5 g ai/ha
  Percent (%) Visual Injury BRSNN-NEX Obs: 15%
[3]; halauxifen-methyl alone 5 g ai/ha
  Percent (%) Visual Injury BRSNN-NEX Obs: 20%
[3]; halauxifen-methyl alone 10 g ai/ha
  Percent (%) Visual Injury BRSNN-NEX Obs: 23%
